According to patent US20240218022A1, “ANTI-VISTA MACROCYCLIC PEPTIDES AND COMPOSITIONS” (BRISTOL-MYERS SQUIBB COMPANY, priority 2022, published 2024):
Starred links: 1 amine or outer side, 2 acyl side, 3 side chain; linkers in the order of their positions; H or OH if unused. Positions of bridges follow the written chain, without caps; N, C: chain ends. Non-standard residues stand in square brackets, D forms with d. Residues, ends and D or L forms follow the SMILES beside them. ξ: configuration not given here. Morpholine(3S-CO) = O=C(O)[C@@H]1COCCN1; Phe(3-Me) = Cc1cccc(C[C@H](N)C(=O)O)c1; 2Nal = N[C@@H](Cc1ccc2ccccc2c1)C(=O)O; βAsp = O=C(O)[C@H](CC(=O)[*:2])N[*:1]; Pro(4ξ-F) = O=C(O)[C@@H]1CC(F)CN1; Ahp(2) = CCCCC[C@H](N)C(=O)O; NMeNle = CCCC[C@H](NC)C(=O)O; Tle = CC(C)(C)[C@H](N)C(=O)O; NHexGly = CCCCCCNCC(=O)O; Nle = CCCC[C@H](N)C(=O)O; Aun = NCCCCCCCCCCC(=O)O; AEEA = NCCOCCOCC(=O)O

Molecular target: T1, mouse VISTA (mVISTA) (Mus musculus, UniProt Q9D659)
T1 construct: expressed in transfected cells; host or cells: Human embryonic kidney 293T cells
T1 sequence (Q9D659 33-308): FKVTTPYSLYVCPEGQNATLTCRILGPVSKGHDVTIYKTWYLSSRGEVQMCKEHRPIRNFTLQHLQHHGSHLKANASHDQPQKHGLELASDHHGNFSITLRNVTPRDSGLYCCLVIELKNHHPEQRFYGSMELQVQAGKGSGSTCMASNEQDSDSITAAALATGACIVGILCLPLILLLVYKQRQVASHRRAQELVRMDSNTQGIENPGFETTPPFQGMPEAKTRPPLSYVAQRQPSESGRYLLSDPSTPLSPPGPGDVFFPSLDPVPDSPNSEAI
Experiment: Cell-Based Binding High-Content Assay For mVISTA (HC CBA mVISTA)
Details: read-out: HC CBA mVISTA IC50
Procedure, shortened: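 293T cells expressing mouse VISTA, with compounds added either after seeding ("no wash") or before seeding and then washed out after 1 h. Biotinylated peptide 2 nM for 30 min at room temperature, then detection with Alexa 647–streptavidin. After fixation with Hoechst stain, plates were high-content imaged; IC50 from four-parameter logistic fit.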

Compound `CCCCCCN1CC(=O)N[C@@H](Cc2ccc(O)cc2)C(=O)N[C@@H](CCCC)C(=O)N[C@@H](CC(N)=O)C(=O)N[C@@H](CCCNC(=N)N)C(=O)N(C)[C@@H](CCCC)C(=O)N[C@@H](CCCCC)C(=O)N2CCOC[C@H]2C(=O)N[C@@H](C(C)(C)C)C(=O)N[C@@H](CO)C(=O)N[C@H](C(=O)N[C@@H](CC(=O)NCCOCCOCC(=O)NCCCCCCCCCCC(=O)O)C(=O)O)CSCC(=O)N[C@@H](Cc2ccccc2)C(=O)N[C@@H](Cc2c[nH]c3ccccc23)C(=O)N[C@@H](CC(=O)O)C1=O` [Example 2192] ({CH2CO}-FWD[NHexGly]Y[Nle]NR[NMeNle][Ahp(2)][Morpholine(3S-CO)][Tle]SC[βAsp][AEEA][Aun]-OH; thioether N-14) has an IC50 of 18.6 nM.
`CCCCCCN1CC(=O)N[C@@H](Cc2ccc(O)cc2)C(=O)N[C@@H](CCCC)C(=O)N[C@@H](CC(N)=O)C(=O)N[C@@H](CCCNC(=N)N)C(=O)N(C)[C@@H](CCCC)C(=O)N[C@@H](CCCCC)C(=O)N2CCOC[C@H]2C(=O)N[C@@H](C(C)C)C(=O)N[C@@H](CO)C(=O)N[C@H](C(=O)N[C@@H](CC(=O)NCCOCCOCC(=O)NCCCCCCCCCCC(=O)O)C(=O)O)CSCC(=O)N[C@@H](Cc2ccccc2)C(=O)N[C@@H](Cc2c[nH]c3ccccc23)C(=O)N[C@@H](CC(=O)O)C1=O` [Example 2193] ({CH2CO}-FWD[NHexGly]Y[Nle]NR[NMeNle][Ahp(2)][Morpholine(3S-CO)]VSC[βAsp][AEEA][Aun]-OH; thioether N-14) showed an IC50 of 16.1 nM.
With `CCCCCCN1CC(=O)N[C@@H](Cc2ccc(O)cc2)C(=O)N[C@@H](CCCC)C(=O)N[C@@H](CC(N)=O)C(=O)N[C@@H](CCCNC(=N)N)C(=O)N(C)[C@@H](CCCC)C(=O)N[C@@H](CCCCC)C(=O)N2CC(F)C[C@H]2C(=O)N[C@@H](C(C)(C)C)C(=O)N[C@@H](CO)C(=O)N[C@H](C(=O)N[C@@H](CC(=O)NCCOCCOCC(=O)NCCCCCCCCCCC(=O)O)C(=O)O)CSCC(=O)N[C@@H](Cc2ccccc2)C(=O)N[C@@H](Cc2c[nH]c3ccccc23)C(=O)N[C@@H](CC(=O)O)C1=O` (stereo partly shown) [Example 2194] ({CH2CO}-FWD[NHexGly]Y[Nle]NR[NMeNle][Ahp(2)][Pro(4ξ-F)][Tle]SC[βAsp][AEEA][Aun]-OH; thioether N-14) the IC50 was 38.6 nM.
Work on `CCCCCCN1CC(=O)N[C@@H](Cc2ccc(O)cc2)C(=O)N[C@@H](CCCC)C(=O)N[C@@H](CC(N)=O)C(=O)N[C@@H](CCCNC(=N)N)C(=O)N(C)[C@@H](CCCC)C(=O)N[C@@H](CCCCC)C(=O)N2CCC[C@H]2C(=O)N[C@@H](C(C)(C)C)C(=O)N[C@@H](CO)C(=O)N[C@H](C(=O)N[C@@H](CC(=O)NCCOCCOCC(=O)NCCCCCCCCCCC(=O)O)C(=O)O)CSCC(=O)N[C@@H](Cc2ccc3ccccc3c2)C(=O)N[C@@H](Cc2ccc(O)cc2)C(=O)N[C@@H](CC(=O)O)C1=O` [Example 2195] ({CH2CO}-[2Nal]YD[NHexGly]Y[Nle]NR[NMeNle][Ahp(2)]P[Tle]SC[βAsp][AEEA][Aun]-OH; thioether N-14) yielded an IC50 of 30.3 nM.
`CCCCCCN1CC(=O)N[C@@H](Cc2ccc(O)cc2)C(=O)N[C@@H](CCCC)C(=O)N[C@@H](CC(N)=O)C(=O)N[C@@H](CCCNC(=N)N)C(=O)N(C)[C@@H](CCCC)C(=O)N[C@@H](CCCCC)C(=O)N2CC(F)C[C@H]2C(=O)N[C@@H](C(C)C)C(=O)N[C@@H](CO)C(=O)N[C@H](C(=O)N[C@@H](CC(=O)NCCOCCOCC(=O)NCCCCCCCCCCC(=O)O)C(=O)O)CSCC(=O)N[C@@H](Cc2ccccc2)C(=O)N[C@@H](Cc2c[nH]c3ccccc23)C(=O)N[C@@H](CC(=O)O)C1=O` (stereo partly shown) [Example 2196] ({CH2CO}-FWD[NHexGly]Y[Nle]NR[NMeNle][Ahp(2)][Pro(4ξ-F)]VSC[βAsp][AEEA][Aun]-OH; thioether N-14) gave an IC50 of 28.4 nM.
With `CCCCCCN1CC(=O)N[C@@H](Cc2ccc(O)cc2)C(=O)N[C@@H](CCCC)C(=O)N[C@@H](CC(N)=O)C(=O)N[C@@H](CCCNC(=N)N)C(=O)N(C)[C@@H](CCCC)C(=O)N[C@@H](CCCCC)C(=O)N2CCC[C@H]2C(=O)N[C@@H](C(C)(C)C)C(=O)N[C@@H](CO)C(=O)N[C@H](C(=O)N[C@@H](CC(=O)NCCOCCOCC(=O)NCCCCCCCCCCC(=O)O)C(=O)O)CSCC(=O)N[C@@H](Cc2cccc(C)c2)C(=O)N[C@@H](Cc2c[nH]c3ccccc23)C(=O)N[C@@H](CC(=O)O)C1=O` [Example 2197] ({CH2CO}-[Phe(3-Me)]WD[NHexGly]Y[Nle]NR[NMeNle][Ahp(2)]P[Tle]SC[βAsp][AEEA][Aun]-OH; thioether N-14) the IC50 was 32.6 nM.
`CCCCCCN1CC(=O)N[C@@H](Cc2ccc(O)cc2)C(=O)N[C@@H](CCCC)C(=O)N[C@@H](CC(N)=O)C(=O)N[C@@H](CCCNC(=N)N)C(=O)N[C@@H](CC(C)C)C(=O)N[C@@H](CCCCC)C(=O)N2CCC[C@H]2C(=O)N[C@@H](C(C)C)C(=O)N[C@@H](CC(=O)O)C(=O)N[C@H](C(=O)NCCOCCOCC(=O)N[C@@H](CC(=O)NCCOCCOCC(=O)NCCCCCCCCCCC(=O)O)C(=O)O)CSCC(=O)N[C@@H](Cc2cccc(C)c2)C(=O)N[C@@H](Cc2c[nH]c3ccccc23)C(=O)N[C@@H](CC(=O)O)C1=O` [Example 2198] ({CH2CO}-[Phe(3-Me)]WD[NHexGly]Y[Nle]NRL[Ahp(2)]PVDC[AEEA][βAsp][AEEA][Aun]-OH; thioether N-14) was tested, and the IC50 was 15.2 nM.
`CCCCCCN1CC(=O)N[C@@H](Cc2ccc(O)cc2)C(=O)N[C@@H](CCCCC)C(=O)NCC(=O)N[C@@H](CCCNC(=N)N)C(=O)N[C@@H](CC(C)C)C(=O)N[C@@H](CCCCC)C(=O)N2CCC[C@H]2C(=O)N[C@@H](C(C)C)C(=O)N[C@@H](CO)C(=O)N[C@H](C(=O)NCCOCCOCC(=O)N[C@@H](CC(=O)NCCOCCOCC(=O)NCCCCCCCCCCC(=O)O)C(=O)O)CSCC(=O)N[C@@H](Cc2ccccc2)C(=O)N[C@@H](Cc2ccc(O)cc2)C(=O)N[C@@H](CC(=O)O)C1=O` [Example 2199] ({CH2CO}-FYD[NHexGly]Y[Ahp(2)]GRL[Ahp(2)]PVSC[AEEA][βAsp][AEEA][Aun]-OH; thioether N-14) was tested, and the IC50 was 18.3 nM.
`CCCCCCN1CC(=O)N[C@@H](Cc2ccc(O)cc2)C(=O)N[C@@H](CCCC)C(=O)N[C@@H](CC(N)=O)C(=O)N[C@@H](CCCNC(=N)N)C(=O)N(C)[C@@H](CCCC)C(=O)N[C@@H](CCCCC)C(=O)N2CCC[C@H]2C(=O)N[C@@H](C(C)C)C(=O)N[C@@H](CC(=O)O)C(=O)N[C@H](C(=O)NCCOCCOCC(=O)N[C@@H](CC(=O)NCCOCCOCC(=O)NCCCCCCCCCCC(=O)O)C(=O)O)CSCC(=O)N[C@@H](Cc2ccc3ccccc3c2)C(=O)N[C@@H](Cc2c[nH]c3ccccc23)C(=O)N[C@@H](CC(=O)O)C1=O` [Example 2200] ({CH2CO}-[2Nal]WD[NHexGly]Y[Nle]NR[NMeNle][Ahp(2)]PVDC[AEEA][βAsp][AEEA][Aun]-OH; thioether N-14) showed an IC50 of 16.5 nM.
`CCCCCCN1CC(=O)N[C@@H](Cc2ccc(O)cc2)C(=O)N[C@@H](CC(C)C)C(=O)N[C@@H](CC(N)=O)C(=O)N[C@@H](CCCNC(=N)N)C(=O)N[C@@H](CC(C)C)C(=O)N[C@@H](CCCCC)C(=O)N2CCC[C@H]2C(=O)N[C@@H](C(C)C)C(=O)N[C@@H](C(C)C)C(=O)N[C@H](C(=O)NCCOCCOCC(=O)N[C@@H](CC(=O)NCCOCCOCC(=O)NCCCCCCCCCCC(=O)O)C(=O)O)CSCC(=O)N[C@@H](Cc2ccccc2)C(=O)N[C@@H](Cc2ccc(O)cc2)C(=O)N[C@@H](CC(=O)O)C1=O` [Example 2201] ({CH2CO}-FYD[NHexGly]YLNRL[Ahp(2)]PVVC[AEEA][βAsp][AEEA][Aun]-OH; thioether N-14) showed an IC50 of 20.9 nM.
